The text below walks through data of patent US8637510B2, “Morpholinothiazoles as alpha 7 positive allosteric modulators” (Janssen Pharmaceutica NV, priority 2009, dated 2014).

Data set [1] addresses T1, human alpha 7-wt nAChR-expressing GH4C1 cells (Homo sapiens, UniProt P36544).
T1 construct: expressed in transfected cells
The data set is described as follows: Patch-clamp current recording (whole-cell voltage-clamp, PAM type classification). The arrangement: key: Type 0 compounds minimally change the effect size of the current elicited by 1 mM choline.; Type 1 compounds enhance the effect size of the current elicited by 1 mM choline but minimally alter the kinetics of the receptor.; Type 2 compounds enhance the effect size of the current elicited by 1 mM choline while reducing the rate and/or the extent of desensitization.; Type 3 compounds enhance the effect size of the current elicited by 1 mM choline. When tested at higher concentrations up to 10 μM they completely inhibit desensitization; Type 4 compounds allow for an initial desensitization of the receptor followed by a re-opening of the receptor during agonist application. It counts as cell-based. The settings on record: 1 mM choline. Summed up:
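Whole-cell voltage clamp of GH4C1 cells stably expressing human wild-type α7 nAChR, with compound co-applied with 1 mM choline via rapid (<100 ms) solution switching; external pH 7.3, CsCl-based internal solution, 1.5-3 MΩ electrodes. PAM type (0-4) assigned from current kinetics when peak potentiation reached ≥200% of control choline response.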

In the next data set the target is T2, human alpha 7-wt nAChR (Homo sapiens, UniProt P36544).
T2 construct: expressed in transfected cells
The experiment in a line: Ca2+ flux imaging (FDSS) (Protocol B). Format: cell-based. The settings on record: for Emax: efficacy of 100 μM choline defined as 100% in the absence of a PAM, read-out: a7-PAM-G_[33]_Eff_Curve_FI % Efficacy; for EC50: potentiation of 100 μM choline, compounds 0.01 μM to 30 μM, read-out: a7-PAM-G_[33]_pEC50 pEC50 (converted). Summed up: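 PAM activity was measured as FDSS calcium fluorescence in α7-wt nAChR cells loaded with 2 μM Fluo-4AM, with compounds at 0.01–30 μM added alongside or 10 min ahead of sub-maximal 100 μM choline. Peak responses were normalised to choline-only efficacy, and EC50 was taken at half-maximal effect.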
(Calcium flux is commonly read through the fluorescence of an indicator in the cells.)

T2 sequence (P36544 23-502): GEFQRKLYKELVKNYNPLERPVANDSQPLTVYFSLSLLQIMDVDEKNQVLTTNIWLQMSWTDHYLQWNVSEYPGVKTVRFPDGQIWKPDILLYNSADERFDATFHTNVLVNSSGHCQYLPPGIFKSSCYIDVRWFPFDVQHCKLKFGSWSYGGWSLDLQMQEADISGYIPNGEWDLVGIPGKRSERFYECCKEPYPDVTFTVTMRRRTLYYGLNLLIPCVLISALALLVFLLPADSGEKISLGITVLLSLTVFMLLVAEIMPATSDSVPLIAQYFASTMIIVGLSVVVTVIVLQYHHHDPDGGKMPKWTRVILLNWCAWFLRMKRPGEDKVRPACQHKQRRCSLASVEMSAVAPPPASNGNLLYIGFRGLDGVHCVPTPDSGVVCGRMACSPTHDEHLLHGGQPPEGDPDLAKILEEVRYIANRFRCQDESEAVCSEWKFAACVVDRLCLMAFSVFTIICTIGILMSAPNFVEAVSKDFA
T1 sequence (P36544 23-502): as above

For the compound `Cc1cc(-c2sc(N3C[C@@H](C)O[C@@H](C)C3)nc2CNC(=O)CC2CC2)cc(C)n1` [Compound 1, N-[[2-[(2R,6S)-2,6-dimethyl-4-morpholinyl]-5-(2,6-dimethyl-4-pyridinyl)-4-thiazolyl]methyl]-cyclopropaneacetamide], the melting point is 174 °C. For the same compound, the “PAM_Type PAM type” value in data set [1] turned out to be 2. For the same compound, on human alpha 7-wt nAChR, the Emax turned out to be 796% and the EC50 is 186 nM.

`Cc1cc(-c2sc(N3C[C@@H](C)O[C@@H](C)C3)nc2CNC(=O)c2conc2C)cc(C)n1` [Compound 18, N-[[2-[(2R,6S)-2,6-dimethyl-4-morpholinyl]-5-(2,6-dimethyl-4-pyridinyl)-4-thiazolyl]methyl]-3-methyl-4-isoxazolecarboxamide] registered a melting point of 141 °C. In addition, in data set [1], the “PAM_Type PAM type” value came out at 2. At human alpha 7-wt nAChR, the Emax stood at 815% and the EC50 was 380 nM.

In general, melting point refers to the temperature of the solid-liquid transition.
